Consider eleven compounds from patent US9676756B2 (PORTOLA PHARMACEUTICALS, INC., priority 2012, dated 2017).

Each structure is given as a SMILES string.

What all share (format): biochemical
The target of test [1] is T1, full length active recombinant SYK enzyme (Homo sapiens, UniProt P43405).
T1 construct: full length active recombinant SYK enzyme (Millipore, CA); purchased Millipore
Kind of test: SYK tyrosine phosphorylation activity, LANCE TR-FRET kinase assay. The conditions noted are these: 1 nM SYK, 100 μM ATP, 1 hour at room temperature. As to the method: Potency of candidate molecules for inhibiting Syk tyrosine phosphorylation activity is assessed by measuring the ability of a test compound to inhibit Syk-mediated tyrosine phosphorylation of a Syk-specific substrate.
SYK tyrosine phosphorylation activity is measured using the LANCE™ Technology developed by Perkin Elmer Life and Analytical Sciences (Boston, Mass.). LANCE™ refers to homogeneous time resolved fluorometry applications using techniques such as time-resolved fluorescence resonance energy transfer assay (TR-FRET) (see generally for procedures in Perkin Elmer Application Note—How to Optimize a Tyrosine Kinase Assay Using Time Resolved Fluorescence-Based LANCE Detection, wwww.perkinelmer.com/lifesciences). The assay principle involves detection of a phosphorylated substrate using energy transfer from a phosphospecific europium-labeled antibody to streptavidin-allophycocyanin as an acceptor.
To test the ability of candidate molecules to inhibit SYK tyrosine phosphorylation activity, molecules are reconstituted in 30% DMSO and serially diluted 1:3 with the final dilution containing DMSO in the absence of the candidate molecule. The final DMSO concentration in the assay is 3%. Kinase assays are performed as a two part reaction. The first reaction is a kinase reaction that comprises a candidate molecule, full length active recombinant SYK enzyme (Millipore, CA) and biotin-labeled SYK-specific substrate biotin-[…]-OH. The second reaction involves termination of the kinase reaction and the simultaneous addition of the detection reagents-europium-labeled anti-phosphotyrosine reagent (Eu-W1024-PY100, Perkin Elmer, Boston, Mass.) and Streptavidin-Allophycocyanin detection reagent (SA-APC, Prozyme, CA). The kinase reaction is performed in a black U-bottom 96-well microtitre plate. The final reaction volume is 50 μL and contains a final concentration of 1 nM active SYK enzyme, 550 nM SYK-substrate, and 100 μM ATP diluted in a buffer containing 50 mM Tris pH 7.5, 5 mM MgCl2, and 1 mM DTT. The reaction is allowed to proceed for 1 hour at room temperature. The stop buffer contains 100 mM Tris pH 7.5, 300 mM NaCl2, 20 mM EDTA, 0.02% Brij35, and 0.5% BSA. The detection reagents are added to the reaction mixture at the following dilutions—1:500 for Eu-W1024-PY100 and 1:250 for SA-APC. The kinase reaction is terminated by the addition of 50 μL stop buffer containing the detection reagents. The detection is allowed to proceed for 1 hr at room temperature. Detection of the phosphorolated substrate in the absence and presence of inhibitors is measured in the TR-FRET instrument, Analyst HT (Molecular Probes, Sunnyvale, Calif.) and the condition for measurements are set up using CriterionHost Release 2.0 (Molecular Probes, Sunnyvale, Calif.). The settings used are a follows: excitation 360 nm, emission 665-7.5 nm, beam splitter 350 nm 50/50, flash 100 pulses, delay 60 us, integration 400 us, z-height 2 mm. Inhibition of SYK-tyrosine kinase activity is calculated as the maximum response observed in the presence of inhibitor, compared to that in the absence of inhibitor. IC50s are derived by non-linear regression analysis.
For orientation: TR-FRET usually uses a lanthanide donor and a delayed reading to cut background.

The target of another test is T2, JAK1 (Homo sapiens, UniProt P23458).
T2 construct: 5 μl of catalytic domain recombinant Kinase enzyme+Tyr peptide substrate (Invitrogen, CA); purchased Invitrogen
Nature of the test: JAK tyrosine phosphorylation activity, Z'-LYTE FRET kinase assay. The conditions noted are these: catalytic domain recombinant kinase, Tyr6 peptide. The method, then:
(§1) JAK and SYK tyrosine phosphorylation activity is measured using the Z'-LYTE™ Technology developed by Invitrogen Corporation (Carlsbad, Calif.). For JAK1, JAK2 and JAK3 the Z'-LYTE™ Kinase Assay Kit-Tyr6 Peptide (part number PV4122) was used. The Z'-LYTE™ biochemical assay employs a fluorescence resonance energy transfer (FRET) coupled-enzyme format and is based on the differential sensitivity of phosphorylated and non-phosphorylated peptides to proteolitic cleavage. The assay uses a synthetic peptide substrate that is labelled with a donor fluorophore (coumarin) and an acceptor fluorophore (fluorescein) that make up a FRET pair. In the primary reaction (the Kinase Reaction), the kinase transfers the γ-phosphate of ATP to a single tyrosine residue on the substrate, while the presence of a kinase inhibitor in the primary reaction suppresses phosphorylation. In the secondary reaction (the Development Reaction), a site-specific protease (the Development Reagent) is added. The development buffer quenches the Kinase Reaction, while the protease recognizes and cleaves non-phosphorylated Z'-LYTE™ peptide substrate. Cleavage disrupts FRET between the donor and acceptor fluorophores on the non-phosphorylated substrate, while uncleaved, phosphorylated substrate maintains FRET.
(§2) To test the ability of candidate molecules to inhibit JAK tyrosine phosphorylation activity, molecules are reconstituted in 100% DMSO and serially diluted 1:10 in polypropylene v-bottom microtiter plates. The candidate molecules are then diluted 1:25 into kinase buffer and 2.5 μl transferred into duplicate wells of a 384 well low volume black microtiter assay plate (Corning, USA). The final DMSO concentration in the assay is 1%. The kinase reaction contains 2.5 μl of a candidate molecule, 5 μl of catalytic domain recombinant Kinase enzyme+Tyr peptide substrate (Invitrogen, CA) and 2.5 μl ATP (Invitrogen, CA). The kinase reaction is allowed to precede for 1 hour at room temperature. The protease reaction is initiated by the addition of 5 μl Development Reagent (Invitrogen, CA). After 1 hour incubation at room temperature the fluorescence is measured using a FlexStation plate reader (Molecular Devices, Sunnyvale, Calif.). The reader settings used are as follows: Fluorescence mode, endpoint, top read, excitation 400 nm, emission 445 nm and 520 nm. Auto Cutoff 435 nm and 515 nm, PMT sensitivity high, 6 reads per well. Inhibition of JAK activity is calculated as the percent phosphorylation of substrate in the presence of inhibitor compared to the percent phosphorylation of substrate in the absence of inhibitor. IC50's were derived using Xlfit 4.3 (IDBS, UK), 4 parameter logistic model 205: Y=(A+((B−A)/(1+((C/x)^D)))).

Another test deals with T3, JAK2 (Homo sapiens, UniProt O60674).
T3 construct: 5 μl of catalytic domain recombinant Kinase enzyme+Tyr peptide substrate (Invitrogen, CA); purchased Invitrogen
Described as above. The conditions noted are these: catalytic domain recombinant kinase, Tyr6 peptide. The method, then: as §1, §2

For another test, the target named is T4, JAK3 (Homo sapiens, UniProt P52333).
T4 construct: 5 μl of catalytic domain recombinant Kinase enzyme+Tyr peptide substrate (Invitrogen, CA); purchased Invitrogen
Described as above. The conditions noted are these: catalytic domain recombinant kinase, Tyr6 peptide. The method, then:
as §1, §2

T3 sequence (O60674 849-1124 limits assumed): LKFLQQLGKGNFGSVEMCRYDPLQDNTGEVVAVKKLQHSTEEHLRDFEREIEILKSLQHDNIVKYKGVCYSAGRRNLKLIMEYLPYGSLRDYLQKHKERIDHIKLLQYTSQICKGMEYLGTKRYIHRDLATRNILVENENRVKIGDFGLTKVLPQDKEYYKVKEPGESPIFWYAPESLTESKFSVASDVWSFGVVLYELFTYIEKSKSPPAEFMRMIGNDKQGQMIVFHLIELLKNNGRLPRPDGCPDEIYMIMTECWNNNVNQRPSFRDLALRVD
T4 sequence (P52333 822-1111 limits assumed): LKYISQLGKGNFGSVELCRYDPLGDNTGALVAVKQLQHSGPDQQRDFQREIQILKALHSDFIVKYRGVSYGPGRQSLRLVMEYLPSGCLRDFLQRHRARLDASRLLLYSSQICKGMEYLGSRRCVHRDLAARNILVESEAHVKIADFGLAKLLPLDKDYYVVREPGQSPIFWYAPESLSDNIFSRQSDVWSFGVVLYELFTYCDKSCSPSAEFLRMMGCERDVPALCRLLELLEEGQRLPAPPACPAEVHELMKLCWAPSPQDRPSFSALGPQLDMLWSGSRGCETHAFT
T2 sequence (P23458 875-1153 limits assumed): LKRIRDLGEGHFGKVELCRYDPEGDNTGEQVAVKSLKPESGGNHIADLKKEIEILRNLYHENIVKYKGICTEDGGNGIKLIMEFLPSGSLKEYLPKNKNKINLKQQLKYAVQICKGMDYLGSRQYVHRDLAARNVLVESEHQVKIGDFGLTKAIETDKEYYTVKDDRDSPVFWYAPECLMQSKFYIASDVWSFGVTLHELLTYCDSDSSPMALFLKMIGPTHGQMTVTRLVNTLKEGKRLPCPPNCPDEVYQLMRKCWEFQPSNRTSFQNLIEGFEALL

For the compound `CCS(=O)(=O)N1CCN(c2ccc(Nc3ncc(C(N)=O)c(NC4CC4)n3)cc2OC)CC1` [Compound 9, 4-(cyclopropylamino)-2-((4-(4-(ethylsulfonyl)piperazin-1-yl)-3-methoxyphenyl)amino)pyrimidine-5-carboxamide], the IC50 entry in test [1] is “+++ (0.10 uM<IC50<0.01 uM)”. In addition, the “JAK1 IC50 potency class” value on JAK1 is “+++ (0.10 uM<IC50<0.01 uM)”. In addition, the “JAK2 IC50 potency class” value at JAK2 was “++++ (0.01 uM<IC50<0.001 uM)”. Also, the “JAK3 IC50 potency class” value on JAK3 was “++++ (0.01 uM<IC50<0.001 uM)”.
As for `NC(=O)c1cnc(Nc2ccc(C3CCN(c4ccccc4)CC3)cc2)nc1NC1CC1` [Compound 16, 4-(cyclopropylamino)-2-((4-(1-phenylpiperidin-4-yl)phenyl)amino)pyrimidine-5-carboxamide], the IC50 result in test [1] was “++ (1.0 uM<IC50<0.10 uM)”; at JAK1 (read-out: JAK1 IC50 % Inhibition), more than 1000 nM. Further, the “JAK2 IC50 potency class” value at JAK2 was “++ (1.0 uM<IC50<0.10 uM)”. In addition, the “JAK3 IC50 potency class” value at JAK3 is given as “+++ (0.10 uM<IC50<0.01 uM)”.
With `NC(=O)c1cnc(Nc2ccc(C3=CCNCC3)cc2)nc1NC1CC1` [Compound 56, 4-(cyclopropylamino)-2-((4-(1,2,3,6-tetrahydropyridin-4-yl)phenyl)amino)pyrimidine-5-carboxamide], the IC50 entry in test [1] is given as “+++ (0.10 uM<IC50<0.01 uM)”. At JAK1, the “JAK1 IC50 potency class” value is “+++ (0.10 uM<IC50<0.01 uM)”. Further, the “JAK2 IC50 potency class” value on JAK2 is “+++ (0.10 uM<IC50<0.01 uM)”. In addition, the “JAK3 IC50 potency class” value on JAK3 is “++++ (0.01 uM<IC50<0.001 uM)”.
Consider `CC(C)S(=O)(=O)N1CCC(c2ccc(Nc3ncc(C(N)=O)c(NC4CC4)n3)cc2)CC1` [Compound 3, 4-(cyclopropylamino)-2-((4-(1-(isopropylsulfonyl)piperidin-4-yl)phenyl)amino)pyrimidine-5-carboxamide], for which the IC50 result in test [1] is “+++ (0.10 uM<IC50<0.01 uM)”. On JAK1, the “JAK1 IC50 potency class” value is on record as “+++ (0.10 uM<IC50<0.01 uM)”. Moreover, the “JAK2 IC50 potency class” value at JAK2 is reported as “++++ (0.01 uM<IC50<0.001 uM)”. The “JAK3 IC50 potency class” value at JAK3 is reported as “++++ (0.01 uM<IC50<0.001 uM)”.
Regarding `CCN1CCC(c2ccc(Nc3ncc(C(N)=O)c(NC4CC4)n3)cc2)CC1` [Compound 15, 4-(cyclopropylamino)-2-((4-(1-ethylpiperidin-4-yl)phenyl)amino)pyrimidine-5-carboxamide], in test [1], the IC50 result is recorded as “+++ (0.10 uM<IC50<0.01 uM)”. Besides, the “JAK1 IC50 potency class” value at JAK1 is “+++ (0.10 uM<IC50<0.01 uM)”. Also, the “JAK2 IC50 potency class” value on JAK2 was “++++ (0.01 uM<IC50<0.001 uM)”. Further, the “JAK3 IC50 potency class” value at JAK3 is “++++ (0.01 uM<IC50<0.001 uM)”.
With `NC(=O)c1cnc(Nc2ccc(C3CCN(C4CCOCC4)CC3)cc2)nc1NC1CC1` [Compound 14, 4-(cyclopropylamino)-2-((4-(1-(tetrahydro-2H-pyran-4-yl)piperidin-4-yl)phenyl)amino)pyrimidine-5-carboxamide], the concentration for half-maximal inhibition (IC50) entry in test [1] is listed as “+++ (0.10 uM<IC50<0.01 uM)”. At JAK1, the “JAK1 IC50 potency class” value is recorded as “+++ (0.10 uM<IC50<0.01 uM)”. Further, the “JAK2 IC50 potency class” value at JAK2 is reported as “++++ (0.01 uM<IC50<0.001 uM)”. On JAK3, the “JAK3 IC50 potency class” value is recorded as “++++ (0.01 uM<IC50<0.001 uM)”.
As to `CCS(=O)(=O)N1CCN(c2ccc(Nc3ncc(C(N)=O)c(NC4CC4)n3)cc2C#N)CC1` [Compound 48, 2-((3-cyano-4-(4-(ethylsulfonyl)piperazin-1-yl)phenyl)amino)-4-(cyclopropylamino)pyrimidine-5-carboxamide], the IC50 result in test [1] is “++ (1.0 uM<IC50<0.10 uM)”. For the same compound, on JAK1, the “JAK1 IC50 potency class” value is “++ (1.0 uM<IC50<0.10 uM)”. In addition, the “JAK2 IC50 potency class” value at JAK2 was “+++ (0.10 uM<IC50<0.01 uM)”. For the same compound, at JAK3, the “JAK3 IC50 potency class” value is “++++ (0.01 uM<IC50<0.001 uM)”.
For `COc1cc(Nc2ncc(C(N)=O)c(NC3CC3)n2)ccc1N1CCC(C(=O)N(C)C)CC1` [Compound 51, 4-(cyclopropylamino)-2-((4-(4-(dimethylcarbamoyl)piperidin-1-yl)-3-methoxyphenyl)amino)pyrimidine-5-carboxamide], the IC50 result in test [1] is given as “++ (1.0 uM<IC50<0.10 uM)”. The “JAK1 IC50 potency class” value at JAK1 is “+++ (0.10 uM<IC50<0.01 uM)”. On JAK2, the “JAK2 IC50 potency class” value is recorded as “++++ (0.01 uM<IC50<0.001 uM)”. Further, the “JAK3 IC50 potency class” value at JAK3 was “++++ (0.01 uM<IC50<0.001 uM)”.
As to `CCOC(=O)N1CCC(c2ccc(Nc3ncc(C(N)=O)c(NC4CC4)n3)cc2)CC1` [Compound 11, ethyl 4-(4-((5-carbamoyl-4-(cyclopropylamino)pyrimidin-2-yl)amino)phenyl)piperidine-1-carboxylate], the 50% inhibitory concentration (IC50) entry in test [1] was “+++ (0.10 uM<IC50<0.01 uM)”. The “JAK1 IC50 potency class” value on JAK1 was “++ (1.0 uM<IC50<0.10 uM)”. Also, the “JAK2 IC50 potency class” value on JAK2 was “+++ (0.10 uM<IC50<0.01 uM)”. In addition, the “JAK3 IC50 potency class” value on JAK3 was “+++ (0.10 uM<IC50<0.01 uM)”.
With `CN(C)C(=O)N1CCC(c2ccc(Nc3ncc(C(N)=O)c(NC4CC4)n3)cc2)CC1` [Compound 5, 4-(cyclopropylamino)-2-((4-(1-(dimethylcarbamoyl)piperidin-4-yl)phenyl)amino)pyrimidine-5-carboxamide], the half-maximal inhibitory concentration (IC50) result in test [1] was “+++ (0.10 uM<IC50<0.01 uM)”. The “JAK1 IC50 potency class” value at JAK1 is listed as “+++ (0.10 uM<IC50<0.01 uM)”. The “JAK2 IC50 potency class” value at JAK2 is reported as “++++ (0.01 uM<IC50<0.001 uM)”. Further, on JAK3, the “JAK3 IC50 potency class” value is given as “++++ (0.01 uM<IC50<0.001 uM)”.
In the case of `NC(=O)c1cnc(Nc2ccc(C3CCN(C4CCCC4)CC3)cc2)nc1NC1CC1` [Compound 8, 2-((4-(1-cyclopentylpiperidin-4-yl)phenyl)amino)-4-(cyclopropylamino)pyrimidine-5-carboxamide], the IC50 entry in test [1] is recorded as “+++ (0.10 uM<IC50<0.01 uM)”. The “JAK1 IC50 potency class” value on JAK1 is “+++ (0.10 uM<IC50<0.01 uM)”. On JAK2, the “JAK2 IC50 potency class” value is “++++ (0.01 uM<IC50<0.001 uM)”. The “JAK3 IC50 potency class” value at JAK3 was “++++ (0.01 uM<IC50<0.001 uM)”.

By IC50 is commonly meant the concentration that gives 50% inhibition.
